The source made the active and inactive calls.
Columns and labels:
[1] = M. tuberculosis H37Rv growth inhibitors, H37Rv strain (AID 1626); type: functional
Cytochrome P450 2C9 = Cytochrome P450 2C9 (Homo sapiens, UniProt P11712)
[2] = target: Epstein-Barr nuclear antigen 1 (Epstein-Barr virus (strain B95-8) (HHV-4) (Human herpesvirus 4), UniProt P03211); assay: inhibition of EBV nuclear antigen 1 DNA binding – biochemical, fluorescence polarization, 1536-well, dose response (AID 2381); parameters: species or system human gammaherpesvirus 4;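 note: fluorescence polarization of a Cy5 DNA probe bound by EBNA-1 protein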
[3] = target: Lytic switch protein BZLF1 (Epstein-Barr virus (strain B95-8) (HHV-4) (Human herpesvirus 4), UniProt P03206); assay: inhibition of BZLF1 ZTA DNA binding – biochemical, fluorescence polarization, Epstein-Barr virus, 1536-well, counter-screen for EBNA-1 inhibitor project, dose response (AID 2377); parameters: species or system human gammaherpesvirus 4;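 note: fluorescence polarization of Cy5-labelled ZRE DNA probe bound by purified Zta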
Genome polyprotein [4] = target: T1, Genome polyprotein (Hepatitis C virus, UniProt Q2Q167); assay: disruption of hepatitis C core self-association – biochemical, TR-FRET, dose response (AID 2159); parameters: species or system Hepacivirus hominis;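 note: blocks dimerization of HCV core protein measured by TR-FRET between tagged core106 pairs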
[5] = target: Induced myeloid leukemia cell differentiation protein Mcl-1 (Homo sapiens, UniProt Q07820); assay: blockers of MCL1 binding to BIM peptide – biochemical, fluorescence polarization, BIM-BH3 peptide, 1536-well, dose response (AID 2217)
Bcl-2-like protein 1 = Bcl-2-like protein 1 (Homo sapiens, UniProt Q07817); assay: blockers of BCLXL peptide binding – biochemical, fluorescence polarization, 1536-well, selectivity assay for MCL1 inhibitor project, dose response (AID 2218)
[6] = target: T2, Small ubiquitin-related modifier 1 (Homo sapiens, UniProt P63165); assay: SUMO1 protein interaction blockers, potency – biochemical, fluorescence polarization, uHTS hits, dose response (AID 624382); type: functional; details: read-out: IC50_Mean
Genome polyprotein [7] = target: T1, Genome polyprotein; assay: Late stage assay provider counterscreen results for the probe development effort to identify inhibitors of Hepatitis C Virus (HCV) core protein dimerization: Luminescence-based biochemical AlphaScreen assay to identify inhibitors of HCV core dimerization.; type: functional, Hepacivirus hominis
[8] = target: T2, Small ubiquitin-related modifier 1; assay: SUMO1 protein-protein binding blockers, potency – biochemical, FRET, dose response (AID 624383); type: functional; details: read-out: IC50_Mean
Albumin = Albumin (Bos taurus, UniProt P02769); assay: Counterscreen for inhibitors of T-cell receptor (TCR)-CD3 interaction: Fluorescence-based biochemical high throughput dose response assay to identify inhibitors of T-cell receptor (TCR)-CD3 interaction using a TAMRA-labeled BSA probe.; type: functional
Leucine aminopeptidase = target: T3, Leucine aminopeptidase (Plasmodium falciparum 3D7, UniProt Q8IL11); assay: P. falciparum M17LAP inhibitors, primary screen, biochemical, fluorogenic H-Leu-NHMec substrate, 1536-well (AID 1619); type: functional
T3 sequence (Q8IL11 whole entry): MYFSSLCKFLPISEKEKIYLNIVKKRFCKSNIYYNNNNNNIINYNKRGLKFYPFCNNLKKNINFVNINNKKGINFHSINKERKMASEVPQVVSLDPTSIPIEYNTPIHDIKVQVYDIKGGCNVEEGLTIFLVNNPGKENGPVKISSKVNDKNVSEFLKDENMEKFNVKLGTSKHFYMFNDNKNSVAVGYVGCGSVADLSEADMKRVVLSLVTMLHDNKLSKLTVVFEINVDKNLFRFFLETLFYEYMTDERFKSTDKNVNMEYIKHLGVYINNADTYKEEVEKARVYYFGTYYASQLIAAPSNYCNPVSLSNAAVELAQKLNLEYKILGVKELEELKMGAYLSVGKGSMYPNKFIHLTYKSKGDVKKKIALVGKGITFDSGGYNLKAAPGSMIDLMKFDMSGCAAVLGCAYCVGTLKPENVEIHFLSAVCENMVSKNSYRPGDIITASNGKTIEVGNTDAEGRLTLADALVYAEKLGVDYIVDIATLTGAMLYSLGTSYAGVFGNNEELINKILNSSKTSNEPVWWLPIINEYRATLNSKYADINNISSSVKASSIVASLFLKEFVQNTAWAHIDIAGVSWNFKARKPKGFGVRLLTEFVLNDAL

Aspartyl aminopeptidase = Aspartyl aminopeptidase (Plasmodium falciparum 3D7, UniProt Q8I2J3); assay: Counterscreen for inhibitors of M1 and M17 aminopeptidases: QFRET-based biochemical high throughput dose response assay for inhibitors of the Plasmodium falciparum M18 Aspartyl Aminopeptidase (PFM18AAP). [Related PubChem assays: 1619 (Screening assay (M17LAP inhibitors).), 1445 (Screening assay (M1AAP inhibitors).)]
Large T antigen = Large T antigen (Simian virus 40, UniProt P03070); type: functional, Betapolyomavirus macacae;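 note: Confirmatory-stage PubChem screen for compounds that inhibit SV40 T antigen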
Procathepsin L = Procathepsin L (Homo sapiens, UniProt P07711); assay: CTSL1 protease inhibition – biochemical, QFRET, 1536-well, counter-screen for M1/M17 aminopeptidase inhibitor project, dose response (AID 2214)
NADPH oxidase 1 [9] = target: T4, NADPH oxidase 1 (Homo sapiens, UniProt Q9Y5S8); type: functional, cell-based
T4 sequence (Q9Y5S8 whole entry): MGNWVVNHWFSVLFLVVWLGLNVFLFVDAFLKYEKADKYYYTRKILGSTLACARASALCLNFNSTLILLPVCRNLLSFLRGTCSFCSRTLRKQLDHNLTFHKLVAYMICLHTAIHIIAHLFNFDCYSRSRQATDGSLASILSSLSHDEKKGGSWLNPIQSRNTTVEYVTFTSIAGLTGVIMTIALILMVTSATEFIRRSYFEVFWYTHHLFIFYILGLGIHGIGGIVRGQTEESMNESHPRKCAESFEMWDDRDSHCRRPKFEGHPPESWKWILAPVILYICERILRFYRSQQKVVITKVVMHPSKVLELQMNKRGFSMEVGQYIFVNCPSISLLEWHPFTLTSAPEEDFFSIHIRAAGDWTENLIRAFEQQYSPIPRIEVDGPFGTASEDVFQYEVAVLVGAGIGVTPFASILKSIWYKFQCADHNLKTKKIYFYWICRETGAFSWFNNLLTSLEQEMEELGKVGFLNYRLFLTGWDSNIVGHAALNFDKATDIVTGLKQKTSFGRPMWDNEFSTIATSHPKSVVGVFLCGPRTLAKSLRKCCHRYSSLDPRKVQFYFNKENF

NADPH oxidase 1 [10] = target: T4, NADPH oxidase 1; assay: Luminescence-based cell-based dose response assay to identify inhibitors of NADPH oxidase 1 (NOX1).; type: functional
[11] = target: T5, Rac GTPase-activating protein 1 (Homo sapiens, UniProt Q9H0H5); assay: blockers of MgcRacGAP-driven Rac1 GTP hydrolysis – biochemical, ADP Hunter fluorescence, primary and confirmatory, confirmation (AID 624330); type: functional
T5 sequence (Q9H0H5 whole entry): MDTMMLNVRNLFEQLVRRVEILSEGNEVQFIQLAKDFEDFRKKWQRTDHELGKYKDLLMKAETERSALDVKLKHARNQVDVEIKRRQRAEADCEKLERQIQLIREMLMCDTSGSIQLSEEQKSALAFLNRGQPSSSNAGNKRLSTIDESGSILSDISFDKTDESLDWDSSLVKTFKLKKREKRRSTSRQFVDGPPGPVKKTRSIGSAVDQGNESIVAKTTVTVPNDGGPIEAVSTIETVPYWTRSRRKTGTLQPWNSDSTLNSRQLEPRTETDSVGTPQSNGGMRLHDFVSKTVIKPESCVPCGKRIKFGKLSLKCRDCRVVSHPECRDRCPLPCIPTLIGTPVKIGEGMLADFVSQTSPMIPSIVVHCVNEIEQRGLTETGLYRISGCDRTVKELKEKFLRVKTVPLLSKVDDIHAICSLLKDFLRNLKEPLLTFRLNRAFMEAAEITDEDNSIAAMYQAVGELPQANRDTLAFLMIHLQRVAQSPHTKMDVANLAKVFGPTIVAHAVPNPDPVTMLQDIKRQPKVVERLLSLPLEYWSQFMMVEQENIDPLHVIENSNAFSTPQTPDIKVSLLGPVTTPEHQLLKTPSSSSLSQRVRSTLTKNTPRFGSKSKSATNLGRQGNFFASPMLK

T1 sequence (Q2Q167 whole entry): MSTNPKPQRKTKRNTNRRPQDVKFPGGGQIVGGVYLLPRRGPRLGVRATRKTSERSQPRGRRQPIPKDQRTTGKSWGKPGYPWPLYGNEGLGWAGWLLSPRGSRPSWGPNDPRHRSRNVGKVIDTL
T2 sequence (P63165 whole entry): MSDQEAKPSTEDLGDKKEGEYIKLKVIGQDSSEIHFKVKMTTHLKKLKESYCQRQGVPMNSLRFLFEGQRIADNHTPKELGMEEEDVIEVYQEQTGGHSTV
Sequence of Aspartyl aminopeptidase (Q8I2J3 whole entry): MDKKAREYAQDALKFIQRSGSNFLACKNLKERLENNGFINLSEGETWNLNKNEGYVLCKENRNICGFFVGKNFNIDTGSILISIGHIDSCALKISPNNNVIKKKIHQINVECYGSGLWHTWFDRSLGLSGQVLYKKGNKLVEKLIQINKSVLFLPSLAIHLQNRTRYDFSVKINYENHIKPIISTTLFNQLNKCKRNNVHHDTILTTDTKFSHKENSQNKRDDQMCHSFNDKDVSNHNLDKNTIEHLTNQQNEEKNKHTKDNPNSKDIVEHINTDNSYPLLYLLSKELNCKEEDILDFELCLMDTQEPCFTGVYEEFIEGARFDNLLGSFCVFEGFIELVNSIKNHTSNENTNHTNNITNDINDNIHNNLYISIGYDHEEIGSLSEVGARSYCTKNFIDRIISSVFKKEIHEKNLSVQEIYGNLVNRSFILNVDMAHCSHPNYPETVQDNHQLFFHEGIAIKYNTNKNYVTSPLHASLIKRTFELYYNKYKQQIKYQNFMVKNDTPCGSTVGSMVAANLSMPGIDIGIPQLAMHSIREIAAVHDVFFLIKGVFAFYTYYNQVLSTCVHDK
Sequence of Albumin (P02769 whole entry): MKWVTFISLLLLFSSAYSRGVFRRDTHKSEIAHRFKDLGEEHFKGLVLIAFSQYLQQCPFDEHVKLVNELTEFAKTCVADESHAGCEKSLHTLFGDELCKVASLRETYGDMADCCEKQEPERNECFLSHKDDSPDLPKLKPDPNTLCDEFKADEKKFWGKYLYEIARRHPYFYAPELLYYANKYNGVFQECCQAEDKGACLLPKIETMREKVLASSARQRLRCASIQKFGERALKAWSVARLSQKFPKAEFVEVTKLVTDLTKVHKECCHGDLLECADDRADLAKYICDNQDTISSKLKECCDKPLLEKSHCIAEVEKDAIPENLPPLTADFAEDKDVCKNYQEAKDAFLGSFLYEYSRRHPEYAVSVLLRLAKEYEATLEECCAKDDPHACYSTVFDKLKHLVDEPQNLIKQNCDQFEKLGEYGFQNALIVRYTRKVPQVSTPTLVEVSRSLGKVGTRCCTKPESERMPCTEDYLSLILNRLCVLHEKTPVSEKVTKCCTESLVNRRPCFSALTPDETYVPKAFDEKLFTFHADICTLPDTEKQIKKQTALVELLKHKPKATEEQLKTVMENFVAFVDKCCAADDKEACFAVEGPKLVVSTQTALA
Sequence of Induced myeloid leukemia cell differentiation protein Mcl-1 (Q07820 whole entry): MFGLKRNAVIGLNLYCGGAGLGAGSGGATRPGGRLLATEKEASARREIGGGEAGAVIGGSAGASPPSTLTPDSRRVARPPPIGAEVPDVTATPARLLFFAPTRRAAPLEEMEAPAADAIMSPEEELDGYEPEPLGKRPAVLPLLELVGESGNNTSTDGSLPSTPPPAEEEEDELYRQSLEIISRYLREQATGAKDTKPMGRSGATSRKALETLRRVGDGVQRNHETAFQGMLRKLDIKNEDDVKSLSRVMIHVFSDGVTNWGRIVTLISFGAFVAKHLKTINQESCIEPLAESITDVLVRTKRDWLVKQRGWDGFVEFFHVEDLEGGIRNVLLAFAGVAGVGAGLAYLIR
Sequence of Procathepsin L (P07711 whole entry): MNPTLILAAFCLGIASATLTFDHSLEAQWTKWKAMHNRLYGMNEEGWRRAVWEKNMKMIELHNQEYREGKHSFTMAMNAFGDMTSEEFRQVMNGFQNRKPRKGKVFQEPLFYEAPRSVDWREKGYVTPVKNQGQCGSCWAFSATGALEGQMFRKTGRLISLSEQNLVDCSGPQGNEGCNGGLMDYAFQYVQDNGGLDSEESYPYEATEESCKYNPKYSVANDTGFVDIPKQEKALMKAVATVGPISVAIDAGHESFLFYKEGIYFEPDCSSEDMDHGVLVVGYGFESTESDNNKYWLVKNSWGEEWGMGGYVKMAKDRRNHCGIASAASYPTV
Sequence of Bcl-2-like protein 1 (Q07817 whole entry): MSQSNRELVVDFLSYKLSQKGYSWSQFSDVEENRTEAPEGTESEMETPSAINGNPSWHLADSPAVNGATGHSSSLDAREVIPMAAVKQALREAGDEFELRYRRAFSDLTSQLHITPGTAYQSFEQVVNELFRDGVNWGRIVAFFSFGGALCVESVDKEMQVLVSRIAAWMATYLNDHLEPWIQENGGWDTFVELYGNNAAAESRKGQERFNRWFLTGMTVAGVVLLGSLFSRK
Sequence of Epstein-Barr nuclear antigen 1 (P03211 whole entry): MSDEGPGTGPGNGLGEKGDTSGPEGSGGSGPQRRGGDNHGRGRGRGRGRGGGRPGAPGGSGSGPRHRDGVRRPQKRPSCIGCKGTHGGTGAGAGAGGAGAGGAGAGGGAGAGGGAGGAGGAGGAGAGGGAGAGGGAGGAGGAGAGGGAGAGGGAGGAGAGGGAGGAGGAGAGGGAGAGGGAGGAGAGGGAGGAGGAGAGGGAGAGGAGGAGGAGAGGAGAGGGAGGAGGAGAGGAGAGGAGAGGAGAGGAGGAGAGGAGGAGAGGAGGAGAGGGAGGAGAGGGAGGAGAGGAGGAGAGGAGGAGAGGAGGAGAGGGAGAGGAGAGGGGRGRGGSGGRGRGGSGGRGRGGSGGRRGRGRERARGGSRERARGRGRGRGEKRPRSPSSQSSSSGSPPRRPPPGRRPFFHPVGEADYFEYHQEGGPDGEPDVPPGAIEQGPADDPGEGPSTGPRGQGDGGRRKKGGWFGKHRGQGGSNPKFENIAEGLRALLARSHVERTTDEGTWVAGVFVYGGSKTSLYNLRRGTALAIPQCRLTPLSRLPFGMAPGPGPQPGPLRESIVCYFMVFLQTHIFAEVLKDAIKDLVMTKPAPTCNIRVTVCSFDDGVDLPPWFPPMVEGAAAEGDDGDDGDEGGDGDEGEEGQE
Sequence of Large T antigen (P03070 whole entry): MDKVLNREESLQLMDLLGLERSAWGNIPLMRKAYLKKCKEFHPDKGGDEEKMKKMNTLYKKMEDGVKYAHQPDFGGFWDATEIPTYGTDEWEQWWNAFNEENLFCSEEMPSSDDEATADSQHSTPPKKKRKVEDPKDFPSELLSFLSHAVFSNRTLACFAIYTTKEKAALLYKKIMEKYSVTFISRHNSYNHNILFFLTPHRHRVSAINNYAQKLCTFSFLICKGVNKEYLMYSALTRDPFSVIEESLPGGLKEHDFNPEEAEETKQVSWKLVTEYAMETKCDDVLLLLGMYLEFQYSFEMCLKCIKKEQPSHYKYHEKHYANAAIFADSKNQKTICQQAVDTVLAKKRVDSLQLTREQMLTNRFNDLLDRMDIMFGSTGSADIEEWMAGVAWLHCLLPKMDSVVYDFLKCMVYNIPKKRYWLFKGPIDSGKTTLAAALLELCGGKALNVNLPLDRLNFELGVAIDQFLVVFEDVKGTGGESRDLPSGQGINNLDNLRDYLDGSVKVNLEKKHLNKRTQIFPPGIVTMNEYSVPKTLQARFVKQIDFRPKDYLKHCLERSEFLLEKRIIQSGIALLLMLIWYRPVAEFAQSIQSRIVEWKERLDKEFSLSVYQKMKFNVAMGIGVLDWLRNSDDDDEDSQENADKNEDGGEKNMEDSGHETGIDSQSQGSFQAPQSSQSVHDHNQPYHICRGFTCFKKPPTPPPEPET
Sequence of Cytochrome P450 2C9 (P11712 whole entry): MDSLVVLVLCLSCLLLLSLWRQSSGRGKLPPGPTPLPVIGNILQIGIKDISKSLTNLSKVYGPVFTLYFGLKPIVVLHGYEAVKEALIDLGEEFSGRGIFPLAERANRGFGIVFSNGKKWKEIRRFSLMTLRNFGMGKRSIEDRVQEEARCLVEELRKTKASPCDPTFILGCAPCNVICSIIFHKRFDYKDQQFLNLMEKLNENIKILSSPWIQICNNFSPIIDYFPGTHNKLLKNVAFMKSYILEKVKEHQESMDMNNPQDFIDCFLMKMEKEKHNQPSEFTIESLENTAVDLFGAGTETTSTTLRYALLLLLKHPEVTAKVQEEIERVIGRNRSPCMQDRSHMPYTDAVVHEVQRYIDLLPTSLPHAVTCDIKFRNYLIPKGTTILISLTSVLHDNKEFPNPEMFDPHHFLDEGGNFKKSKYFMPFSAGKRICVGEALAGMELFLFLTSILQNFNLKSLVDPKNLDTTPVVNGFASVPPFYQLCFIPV
Sequence of Lytic switch protein BZLF1 (P03206 whole entry): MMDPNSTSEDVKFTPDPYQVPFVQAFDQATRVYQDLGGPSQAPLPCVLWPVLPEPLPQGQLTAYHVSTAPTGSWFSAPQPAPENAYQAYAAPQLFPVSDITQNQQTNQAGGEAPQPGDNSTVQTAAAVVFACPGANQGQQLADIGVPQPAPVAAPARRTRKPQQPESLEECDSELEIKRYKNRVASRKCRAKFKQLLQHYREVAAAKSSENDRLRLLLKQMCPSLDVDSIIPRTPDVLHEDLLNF

## CCCCOC(=O)Nc1ccc(C)c(Cl)c1
[1]
  IC50: > 100 µM (active)
Cytochrome P450 2C9
  AC50: 11.2 µM (inconclusive)

## CC1=CC2=NC(=O)/C(=C\c3cn(C)c4ccccc34)C(=N)N2O1
[2]
  IC50: 8.61 µM (active)
[3]
  IC50: > 111 µM (not active)

## CCN(CC(=O)Nc1c(F)cccc1F)C(=O)/C=C/c1ccc2ccccc2n1
Genome polyprotein [4]
  IC50: 16.7 µM (not active)
[5]
  IC50: 3.46 µM (active)
Bcl-2-like protein 1
  IC50: 25.3 µM (not active)
[6]
  IC50: > 66.6 µM (inactive)
Genome polyprotein [7]
  IC50: 29.8 µM (inactive)
[8]
  IC50: 2.3 µM (active)
Albumin
  IC50: > 94.1 µM (inactive)

## CCN(CC)c1ccc(NC(=O)CSc2nnc(N)s2)cc1C
Leucine aminopeptidase
  IC50: 5.57 µM (active)
Aspartyl aminopeptidase
  IC50: > 73.5 µM (not active)
Large T antigen
  IC50: 14.8 µM (active)
Procathepsin L
  IC50: > 59.6 µM (not active)

## c1ccc2c(c1)Nc1ccccc1S2 [PHENOTHIAZINE]
NADPH oxidase 1 [9]
  IC50: 0.369 µM (active)
NADPH oxidase 1 [10]
  IC50: 0.349 µM (active)
[11]
  IC50: 18.5 µM (active)

Reference: ChEMBL document CHEMBL1201862, “PubChem BioAssay data set” (2004)
